Assay results as given in article PMC5791972 (PLoS ONE, 2018).
Where two headings read alike, the source gives them in different places.

Experiments:
hTRPV1 = molecular target: T1, hTRPV1 (Homo sapiens, UniProt Q8NER1); assay: Ion channel selectivity patch clamp; assay type: cell-based
T1 construct: The cDNAs for various full-length ion channels were subcloned into pcDNA5/TO; expressed in transfected cells; host or cells: T-REx-293 (general cell paragraph)

hTRPV3 = molecular target: T2, hTRPV3 (Homo sapiens, UniProt Q8NET8); assay: Ion channel selectivity patch clamp; assay type: cell-based
T2 construct: The cDNAs for various full-length ion channels were subcloned into pcDNA5/TO; expressed in transfected cells; host or cells: T-REx-293 (general cell paragraph)

hTRPA1 = molecular target: T3, hTRPA1 (Homo sapiens, UniProt O75762); assay: Ion channel selectivity patch clamp; assay type: cell-based
T3 construct: The cDNAs for various full-length ion channels were subcloned into pcDNA5/TO; expressed in transfected cells; host or cells: T-REx-293 (general cell paragraph)

Nav1.5 = molecular target: T4, Nav1.5 (Homo sapiens, UniProt Q14524); assay: Ion channel selectivity patch clamp; assay type: cell-based
T4 construct: The cDNAs for various full-length ion channels were subcloned into pcDNA5/TO; expressed in transfected cells

α2B (h) = molecular target: T5, α2B (h) (Homo sapiens, UniProt P18089); assay: biochemical; assay type: binding; conditions: 1.0E-06 M
T5 construct: host or cells: CHO cells
T5 sequence (P18089 1-450): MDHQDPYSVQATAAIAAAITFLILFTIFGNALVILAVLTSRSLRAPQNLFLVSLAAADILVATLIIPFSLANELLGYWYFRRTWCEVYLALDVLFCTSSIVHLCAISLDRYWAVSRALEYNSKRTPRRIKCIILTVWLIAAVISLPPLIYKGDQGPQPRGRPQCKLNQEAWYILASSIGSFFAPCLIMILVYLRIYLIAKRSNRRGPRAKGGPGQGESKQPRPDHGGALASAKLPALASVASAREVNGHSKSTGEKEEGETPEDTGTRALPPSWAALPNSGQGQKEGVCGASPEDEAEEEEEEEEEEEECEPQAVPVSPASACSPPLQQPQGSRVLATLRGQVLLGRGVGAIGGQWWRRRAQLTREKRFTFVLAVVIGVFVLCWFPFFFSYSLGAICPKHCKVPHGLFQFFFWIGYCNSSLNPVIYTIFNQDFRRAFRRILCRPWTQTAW

CB1 (h) = molecular target: T6, CB1 (h) (Homo sapiens, UniProt P21554); assay type: binding; conditions: 1.0E-06 M
T6 construct: host or cells: CHO cells

D4.4 (h) = molecular target: T7, D4.4 (h) (Homo sapiens, UniProt P21917); assay: biochemical; assay type: binding; conditions: 1.0E-06 M
T7 sequence (P21917 1-419): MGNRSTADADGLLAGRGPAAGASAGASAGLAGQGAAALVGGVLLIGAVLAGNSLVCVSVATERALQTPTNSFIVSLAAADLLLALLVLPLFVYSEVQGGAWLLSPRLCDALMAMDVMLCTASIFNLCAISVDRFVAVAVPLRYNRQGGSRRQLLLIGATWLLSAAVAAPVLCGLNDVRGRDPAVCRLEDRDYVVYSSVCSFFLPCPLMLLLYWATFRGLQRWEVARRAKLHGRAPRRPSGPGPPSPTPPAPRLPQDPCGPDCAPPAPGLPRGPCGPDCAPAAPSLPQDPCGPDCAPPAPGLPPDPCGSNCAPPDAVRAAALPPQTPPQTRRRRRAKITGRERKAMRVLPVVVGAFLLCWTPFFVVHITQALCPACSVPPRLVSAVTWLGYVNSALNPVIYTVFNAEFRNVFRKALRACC

GABAA1 (h) (α1,β2,γ2) = molecular target: T8, GABAA1 (h) (α1,β2,γ2) (Homo sapiens, UniProt P14867+P47870); assay type: binding; conditions: 1.0E-06 M
T8 construct: host or cells: CHO cells

5-HT1A (h) = molecular target: T9, 5-HT1A (h) (Homo sapiens, UniProt P08908); assay type: binding; conditions: 1.0E-06 M
T9 construct: host or cells: HEK-293 cells
T9 sequence (P08908 1-422): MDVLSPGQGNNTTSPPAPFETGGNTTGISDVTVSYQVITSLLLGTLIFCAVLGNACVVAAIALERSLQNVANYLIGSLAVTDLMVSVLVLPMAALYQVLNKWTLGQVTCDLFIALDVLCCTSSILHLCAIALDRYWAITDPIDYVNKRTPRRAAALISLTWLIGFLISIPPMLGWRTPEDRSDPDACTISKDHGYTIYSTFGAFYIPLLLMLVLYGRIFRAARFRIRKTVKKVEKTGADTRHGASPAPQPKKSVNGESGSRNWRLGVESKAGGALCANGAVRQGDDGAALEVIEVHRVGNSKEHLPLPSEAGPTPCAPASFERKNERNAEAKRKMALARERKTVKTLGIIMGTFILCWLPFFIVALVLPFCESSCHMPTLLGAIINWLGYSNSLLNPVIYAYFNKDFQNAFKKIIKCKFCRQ

[1] = molecular target: T10, norepinephrine transporter (h) (Homo sapiens, UniProt P23975); assay type: binding
T10 construct: host or cells: CHO cells

dopamine transporter (h) = molecular target: T11, dopamine transporter (h) (Homo sapiens, UniProt Q01959); assay type: binding; conditions: 1.0E-06 M
T11 construct: host or cells: CHO cells

acetylcholinesterase (h) = molecular target: T12, acetylcholinesterase (h) (Homo sapiens, UniProt P22303); assay: enzyme assay; assay type: biochemical; conditions: 1.0E-06 M
T12 construct: host or cells: HEK-293 cells

5-HT3 (h) = molecular target: T13, 5-HT3 (h) (Homo sapiens, UniProt P46098); assay: biochemical
T13 sequence (P46098 24-478): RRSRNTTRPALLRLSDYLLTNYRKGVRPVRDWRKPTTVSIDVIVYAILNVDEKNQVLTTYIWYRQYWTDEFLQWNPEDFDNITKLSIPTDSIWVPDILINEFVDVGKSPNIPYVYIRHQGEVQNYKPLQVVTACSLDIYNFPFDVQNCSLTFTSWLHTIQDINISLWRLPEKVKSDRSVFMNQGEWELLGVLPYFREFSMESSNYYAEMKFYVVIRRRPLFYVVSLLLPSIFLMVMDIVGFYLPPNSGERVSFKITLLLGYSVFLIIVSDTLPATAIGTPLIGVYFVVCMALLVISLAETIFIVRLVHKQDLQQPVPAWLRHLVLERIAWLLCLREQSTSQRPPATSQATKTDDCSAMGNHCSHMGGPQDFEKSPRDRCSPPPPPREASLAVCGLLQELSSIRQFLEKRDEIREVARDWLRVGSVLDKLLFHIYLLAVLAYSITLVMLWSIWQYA

T11 sequence (Q01959 whole entry): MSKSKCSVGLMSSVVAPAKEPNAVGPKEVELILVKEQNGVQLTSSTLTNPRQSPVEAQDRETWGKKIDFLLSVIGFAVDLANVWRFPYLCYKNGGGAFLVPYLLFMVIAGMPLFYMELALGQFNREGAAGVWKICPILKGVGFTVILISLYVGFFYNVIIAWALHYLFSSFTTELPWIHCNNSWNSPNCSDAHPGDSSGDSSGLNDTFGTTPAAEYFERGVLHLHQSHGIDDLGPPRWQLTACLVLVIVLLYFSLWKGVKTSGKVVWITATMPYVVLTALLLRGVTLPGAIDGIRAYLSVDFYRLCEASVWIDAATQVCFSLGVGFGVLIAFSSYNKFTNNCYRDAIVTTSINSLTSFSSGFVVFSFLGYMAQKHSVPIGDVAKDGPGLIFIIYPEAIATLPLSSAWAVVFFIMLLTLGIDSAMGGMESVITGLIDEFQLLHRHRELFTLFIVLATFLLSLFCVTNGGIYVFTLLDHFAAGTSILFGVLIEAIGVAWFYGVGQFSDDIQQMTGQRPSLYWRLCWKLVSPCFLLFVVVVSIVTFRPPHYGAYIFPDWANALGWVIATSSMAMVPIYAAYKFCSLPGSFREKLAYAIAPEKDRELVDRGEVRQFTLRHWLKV
T8 sequence (P14867 28-456): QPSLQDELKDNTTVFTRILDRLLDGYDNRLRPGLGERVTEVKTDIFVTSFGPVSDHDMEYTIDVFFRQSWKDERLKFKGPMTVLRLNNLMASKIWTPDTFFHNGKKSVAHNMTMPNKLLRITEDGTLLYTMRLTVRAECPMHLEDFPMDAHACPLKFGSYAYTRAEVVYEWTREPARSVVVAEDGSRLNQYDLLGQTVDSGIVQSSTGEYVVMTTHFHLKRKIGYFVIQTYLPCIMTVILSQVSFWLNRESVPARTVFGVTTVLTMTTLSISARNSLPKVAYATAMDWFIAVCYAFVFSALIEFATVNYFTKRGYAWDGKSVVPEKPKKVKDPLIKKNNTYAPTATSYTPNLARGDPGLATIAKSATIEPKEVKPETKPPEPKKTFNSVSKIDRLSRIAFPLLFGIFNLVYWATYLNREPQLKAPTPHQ
T8 sequence (P47870 25-512 limits assumed): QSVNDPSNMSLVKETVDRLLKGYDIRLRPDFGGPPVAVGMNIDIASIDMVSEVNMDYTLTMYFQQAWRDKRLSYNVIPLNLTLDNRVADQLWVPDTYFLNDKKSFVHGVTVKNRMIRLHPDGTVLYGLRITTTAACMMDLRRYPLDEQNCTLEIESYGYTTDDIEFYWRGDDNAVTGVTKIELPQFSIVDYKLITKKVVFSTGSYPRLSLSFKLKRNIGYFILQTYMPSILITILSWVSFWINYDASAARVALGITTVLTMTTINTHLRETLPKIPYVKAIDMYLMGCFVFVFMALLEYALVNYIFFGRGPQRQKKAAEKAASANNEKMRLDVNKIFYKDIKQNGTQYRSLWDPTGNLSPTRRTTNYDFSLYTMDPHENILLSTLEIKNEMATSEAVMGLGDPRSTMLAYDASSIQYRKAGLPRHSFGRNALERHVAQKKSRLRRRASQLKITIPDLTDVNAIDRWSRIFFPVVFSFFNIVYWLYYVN
T8 sequence (P18507 40-475 partner): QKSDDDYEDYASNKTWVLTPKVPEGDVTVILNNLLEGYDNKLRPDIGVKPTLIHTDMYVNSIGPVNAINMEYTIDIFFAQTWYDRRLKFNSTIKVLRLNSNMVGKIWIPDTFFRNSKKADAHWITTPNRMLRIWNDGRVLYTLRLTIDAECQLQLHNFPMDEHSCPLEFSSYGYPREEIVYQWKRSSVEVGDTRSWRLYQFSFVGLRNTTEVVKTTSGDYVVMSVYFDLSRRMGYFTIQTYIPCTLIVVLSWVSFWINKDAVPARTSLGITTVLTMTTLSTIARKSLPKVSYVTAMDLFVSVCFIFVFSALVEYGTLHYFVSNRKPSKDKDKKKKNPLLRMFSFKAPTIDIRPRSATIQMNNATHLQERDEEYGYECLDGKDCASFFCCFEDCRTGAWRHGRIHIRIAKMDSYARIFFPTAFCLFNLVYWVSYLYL
T6 sequence (P21554 whole entry): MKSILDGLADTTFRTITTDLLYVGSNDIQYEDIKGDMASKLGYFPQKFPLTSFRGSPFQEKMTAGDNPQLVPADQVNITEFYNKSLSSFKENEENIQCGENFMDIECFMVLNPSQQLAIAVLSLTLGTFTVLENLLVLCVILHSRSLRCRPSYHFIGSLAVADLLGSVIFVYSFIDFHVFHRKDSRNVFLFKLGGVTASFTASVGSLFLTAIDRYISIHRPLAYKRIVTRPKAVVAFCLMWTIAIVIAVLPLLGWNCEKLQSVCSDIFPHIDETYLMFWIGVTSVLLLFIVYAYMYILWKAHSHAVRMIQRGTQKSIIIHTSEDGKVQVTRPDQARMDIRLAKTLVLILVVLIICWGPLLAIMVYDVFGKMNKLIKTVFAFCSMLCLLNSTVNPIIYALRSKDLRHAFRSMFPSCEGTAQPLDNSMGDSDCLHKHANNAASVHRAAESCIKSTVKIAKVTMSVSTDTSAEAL
T10 sequence (P23975 whole entry): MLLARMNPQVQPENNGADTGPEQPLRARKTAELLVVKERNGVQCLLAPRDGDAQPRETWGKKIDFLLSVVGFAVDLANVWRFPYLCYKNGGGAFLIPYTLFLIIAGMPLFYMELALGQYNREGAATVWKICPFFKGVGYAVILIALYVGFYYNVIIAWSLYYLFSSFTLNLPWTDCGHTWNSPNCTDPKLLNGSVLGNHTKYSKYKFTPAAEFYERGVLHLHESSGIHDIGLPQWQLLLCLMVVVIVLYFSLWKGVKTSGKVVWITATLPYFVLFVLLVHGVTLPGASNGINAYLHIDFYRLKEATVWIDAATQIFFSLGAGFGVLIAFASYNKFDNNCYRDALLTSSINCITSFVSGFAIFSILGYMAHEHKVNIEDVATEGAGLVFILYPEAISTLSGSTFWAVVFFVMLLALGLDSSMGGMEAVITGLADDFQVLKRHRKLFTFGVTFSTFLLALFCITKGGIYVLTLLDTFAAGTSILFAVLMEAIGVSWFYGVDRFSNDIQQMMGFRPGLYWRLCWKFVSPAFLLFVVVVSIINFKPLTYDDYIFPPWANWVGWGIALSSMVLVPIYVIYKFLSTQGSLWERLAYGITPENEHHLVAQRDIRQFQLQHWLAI
T12 sequence (P22303 32-614): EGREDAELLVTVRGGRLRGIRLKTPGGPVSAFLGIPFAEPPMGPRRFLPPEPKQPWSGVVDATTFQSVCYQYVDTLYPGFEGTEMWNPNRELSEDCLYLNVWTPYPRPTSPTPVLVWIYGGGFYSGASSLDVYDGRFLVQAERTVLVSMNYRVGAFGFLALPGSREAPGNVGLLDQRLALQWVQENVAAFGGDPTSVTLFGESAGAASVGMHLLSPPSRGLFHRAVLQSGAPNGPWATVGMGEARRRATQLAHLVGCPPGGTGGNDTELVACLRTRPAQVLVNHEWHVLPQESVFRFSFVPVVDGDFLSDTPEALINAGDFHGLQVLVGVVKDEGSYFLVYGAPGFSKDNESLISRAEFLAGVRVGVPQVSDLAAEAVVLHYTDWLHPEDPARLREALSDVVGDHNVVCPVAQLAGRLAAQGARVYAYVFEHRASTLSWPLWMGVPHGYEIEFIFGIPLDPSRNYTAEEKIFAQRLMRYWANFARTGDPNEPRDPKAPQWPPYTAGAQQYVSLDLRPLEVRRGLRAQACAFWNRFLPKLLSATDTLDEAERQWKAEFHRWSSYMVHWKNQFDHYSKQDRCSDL
T3 sequence (O75762 whole entry): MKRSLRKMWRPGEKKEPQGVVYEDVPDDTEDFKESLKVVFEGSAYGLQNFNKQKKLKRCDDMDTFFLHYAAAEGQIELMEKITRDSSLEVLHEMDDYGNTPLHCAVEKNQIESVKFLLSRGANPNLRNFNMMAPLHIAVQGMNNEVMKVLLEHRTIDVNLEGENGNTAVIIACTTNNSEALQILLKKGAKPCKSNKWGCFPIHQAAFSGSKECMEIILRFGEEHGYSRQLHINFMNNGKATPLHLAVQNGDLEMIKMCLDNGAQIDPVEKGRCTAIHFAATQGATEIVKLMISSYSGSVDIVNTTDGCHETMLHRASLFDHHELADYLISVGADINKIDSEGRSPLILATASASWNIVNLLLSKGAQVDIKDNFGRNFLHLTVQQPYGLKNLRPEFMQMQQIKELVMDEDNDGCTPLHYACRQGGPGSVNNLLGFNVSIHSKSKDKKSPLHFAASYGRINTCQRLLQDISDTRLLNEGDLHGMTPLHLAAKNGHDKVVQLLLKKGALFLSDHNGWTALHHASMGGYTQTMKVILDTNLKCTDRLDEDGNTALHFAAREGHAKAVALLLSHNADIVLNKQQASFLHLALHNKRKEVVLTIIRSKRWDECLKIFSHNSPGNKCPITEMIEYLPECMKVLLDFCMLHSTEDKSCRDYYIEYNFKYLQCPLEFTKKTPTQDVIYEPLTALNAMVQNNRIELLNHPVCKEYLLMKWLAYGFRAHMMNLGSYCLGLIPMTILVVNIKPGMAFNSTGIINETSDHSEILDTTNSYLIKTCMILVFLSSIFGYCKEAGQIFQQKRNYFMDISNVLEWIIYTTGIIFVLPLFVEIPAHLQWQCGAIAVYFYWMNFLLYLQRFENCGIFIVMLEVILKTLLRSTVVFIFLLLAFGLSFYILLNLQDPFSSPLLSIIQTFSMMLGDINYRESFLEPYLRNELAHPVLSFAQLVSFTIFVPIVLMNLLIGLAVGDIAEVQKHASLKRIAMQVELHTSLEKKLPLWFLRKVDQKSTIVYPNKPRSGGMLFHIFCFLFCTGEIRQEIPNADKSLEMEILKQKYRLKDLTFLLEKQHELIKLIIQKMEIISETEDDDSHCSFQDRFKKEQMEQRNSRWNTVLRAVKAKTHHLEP

| SMILES | IC50 (Nav1.5) [nM] | inhibition at 1 µM (α2B (h); read-out: % Inhibition 1st) [%] | inhibition at 1 µM (α2B (h); read-out: % Inhibition 2nd) [%] | inhibition at 1 µM (α2B (h); read-out: % Inhibition Mean) [%] | inhibition at 1 µM (CB1 (h); read-out: % Inhibition 1st) [%] | inhibition at 1 µM (CB1 (h); read-out: % Inhibition 2nd) [%] | inhibition at 1 µM (CB1 (h); read-out: % Inhibition Mean) [%] | inhibition at 1 µM (D4.4 (h); read-out: % Inhibition 1st) [%] | inhibition at 1 µM (D4.4 (h); read-out: % Inhibition 2nd) [%] | inhibition at 1 µM (D4.4 (h); read-out: % Inhibition Mean) [%] | inhibition at 1 µM (GABAA1 (h) (α1,β2,γ2); read-out: % Inhibition 1st) [%] | inhibition at 1 µM (GABAA1 (h) (α1,β2,γ2); read-out: % Inhibition 2nd) [%] | inhibition at 1 µM (GABAA1 (h) (α1,β2,γ2); read-out: % Inhibition Mean) [%] | inhibition at 1 µM (5-HT1A (h); read-out: % Inhibition 1st) [%] | inhibition at 1 µM (5-HT1A (h); read-out: % Inhibition 2nd) [%] | inhibition at 1 µM (5-HT1A (h); read-out: % Inhibition Mean) [%] | inhibition at 1 µM ([1]; read-out: % Inhibition 1st) [%] | inhibition at 1 µM ([1]; read-out: % Inhibition 2nd) [%] | inhibition at 1 µM ([1]; read-out: % Inhibition Mean) [%] | inhibition at 1 µM (dopamine transporter (h); read-out: % Inhibition 1st) [%] | also measured |
| --- | --- | --- | --- | --- | --- | --- | --- | --- | --- | --- | --- | --- | --- | --- | --- | --- | --- | --- | --- | --- | --- |
| Cn1c(=O)n(CCCO)c(=O)c2c1nc(Oc1cccc(Cl)c1)n2Cc1ccc(Cl)cc1 [HC-070] | > 1900 | -22.3 | -1.2 | -11.7 | 8.4 | 18.8 | 13.6 | -15.8 | -1.8 | -8.8 | 27.9 | 16.4 | 22.1 | 8.7 | -24.2 | -7.7 | -10.1 | -0.6 | -5.4 | 8.9 | IC50 (hTRPV1; 500 nM Capsaicin, read-out: IC50): > 1900 nM; IC50 (hTRPV3; 30 µM 2-APB, read-out: IC50): > 1900 nM; IC50 (hTRPA1; 2-10 µM AITC, read-out: IC50): > 1900 nM; inhibition at 1 µM (dopamine transporter (h); read-out: % Inhibition 2nd): 8.6%; inhibition at 1 µM (dopamine transporter (h); read-out: % Inhibition Mean): 8.8%; inhibition at 1 µM (acetylcholinesterase (h); read-out: % Inhibition 1st): 2.1%; inhibition at 1 µM (acetylcholinesterase (h); read-out: % Inhibition 2nd): -0.7%; inhibition at 1 µM (acetylcholinesterase (h); read-out: % Inhibition Mean): 0.7%; inhibition at 1 µM (5-HT3 (h); read-out: % Inhibition 1st): 4.7%; inhibition at 1 µM (5-HT3 (h); read-out: % Inhibition 2nd): 2.6%; inhibition at 1 µM (5-HT3 (h); read-out: % Inhibition Mean): 3.7% |
| Cn1c(=O)n(CCCO)c(=O)c2c1nc(Oc1cccc(OC(F)(F)F)c1)n2Cc1ccc(Cl)cc1 [HC-608] | > 1640 | -7.4 | -0.7 | -4 | 27 | 25.5 | 26.2 | -20.4 | 3.4 | -8.5 | 0.6 | 7.9 | 4.2 | -0.2 | 14.8 | 7.3 | 4.8 | 18.1 | 11.5 | 22.8 | IC50 (hTRPV1): > 1640 nM; IC50 (hTRPV3): > 1640 nM; IC50 (hTRPA1): > 1640 nM; inhibition at 1 µM (dopamine transporter (h); read-out: % Inhibition 2nd): 37.1%; inhibition at 1 µM (dopamine transporter (h); read-out: % Inhibition Mean): 29.9%; inhibition at 1 µM (acetylcholinesterase (h); read-out: % Inhibition 1st): -5.9%; inhibition at 1 µM (acetylcholinesterase (h); read-out: % Inhibition 2nd): -3.5%; inhibition at 1 µM (acetylcholinesterase (h); read-out: % Inhibition Mean): -4.7%; inhibition at 1 µM (5-HT3 (h); read-out: % Inhibition 1st): -4.1%; inhibition at 1 µM (5-HT3 (h); read-out: % Inhibition 2nd): 9.5%; inhibition at 1 µM (5-HT3 (h); read-out: % Inhibition Mean): 2.7% |
